Experimental data published in PubChem BioAssay (NCI).
Values joined by “and” are separate entries in the source; they are usually repeats but may differ in a detail not shown here. Equal entries are not always repeated.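 Cultured in 96-well plates, cells were exposed to test compound for 48 hours across five concentrations. GI50 marks 50% less growth. At the TGI there is no net growth.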

Tests used:
Experiment in all cases: DTP human tumour cell line panel, 48 h
[1] = test system: CCRF-CEM leukemia
[2] = test system: DMS 114 small cell lung
[3] = test system: DMS 273 small cell lung
[4] = test system: HL-60(TB) leukemia
[5] = test system: KM12 colon
[6] = test system: MDA-MB-231 breast
[7] = test system: RPMI-8226 leukemia
[8] = test system: SK-MEL-5 melanoma
[9] = test system: SR leukemia
[10] = test system: SW-620 colon

SMILES	TGI [1] [µM]	TGI [2] [µM]	TGI [3] [µM]	TGI [4]	TGI [5] [µM]	TGI [6] [µM]	TGI [7] [µM]	TGI [8]	TGI [9] [µM]	TGI [10] [µM]	GI50 [2]	GI50 [3] [µM]	GI50 [5] [µM]	GI50 [6] [µM]	GI50 [7]	GI50 [8]	GI50 [9]	GI50 [10] [µM]	GI50 [1]	GI50 [4]
Nc1nc(F)nc2c1ncn2C1OC(COP(=O)(O)O)C(O)C1O (stereo unspecified)	202	626	821	71.9 µM	900	772	855	406 µM	> 621	675	–	–	–	–	–	–	–	–	–	–
O=C1CC(c2ccccc2)NCN1 (stereo unspecified)	> 100	> 100	> 100	> 100 µM	> 100	–	> 100	> 100 µM	> 100	> 100	–	–	–	–	–	–	–	–	–	–
COc1ccc(/C(Cl)=C(\C=O)c2cc(OC)c(OC)c(OC)c2)cc1OC	> 100	85.9	> 100	58.6 µM	73.8	> 100	77	> 100 µM	> 100	> 100	–	–	–	–	–	–	–	–	–	–
NC1=NN(c2ccccc2)C(=O)C1C(=O)C(=O)Nc1cccc(C(F)(F)F)c1 (stereo unspecified)	> 100	> 100	> 100	> 100 µM	> 100	–	> 100	> 100 µM	–	> 100	–	–	–	–	–	–	–	–	–	–
CCC[CH2][Sn]([CH2]CCC)([O]C(=O)c1cccc(F)c1F)[O][Sn]([CH2]CCC)([CH2]CCC)[O]C(=O)c1cccc(F)c1F	–	0.204	1.51	–	2.22	1.19	–	1.69 µM	–	0.239	0.0627 µM	0.301	0.857	0.218	0.0288 µM	520 nM	0.0771 µM	0.103	–	–
CC(=O)[CH-]C(C)=O.CC(=O)[CH-]C(C)=O.CC(=O)[CH-]C(C)=O.[Cl-].[Hf+4]	> 100	> 100	> 100	> 100 µM	> 100	–	> 100	–	> 100	> 100	> 100 µM	> 100	> 100	–	> 100 µM	–	> 100 µM	> 100	> 100 µM	> 100 µM
O[C@H]1[C@H]2[C@H](O)CCCN2C[C@H]1O	> 100	> 100	> 100	> 100 µM	> 100	–	> 100	> 100 µM	–	> 100	–	–	–	–	–	–	–	–	–	–
CC1=Cc2cc3[n-]c(cc4nc(cc5[n-]c(cc1n2)c(C)c5CCC(=O)O)C(CCC(=O)O)=C4C)cc3C.[Cu+2]	> 68.5	> 44.9	> 55.9	> 1 µM and 51.2 µM	> 100	50.3	> 80	> 1 µM and 31.5 µM	> 75.7	> 79.6	> 1 µM and 11.5 µM	> 39.8	> 92.2	22.6	> 1 µM and 53.9 µM	> 1000 nM and 14500 nM	> 1 µM and 45.1 µM	> 47.7	> 1 µM and 12.1 µM	> 1 µM and 22.2 µM
C/C=C/CP(=O)(c1ccccc1)c1ccccc1	> 100	> 100	> 100	> 100 µM	> 100	–	> 100	> 100 µM	> 100	> 100	–	–	–	–	–	–	–	–	–	–
CC(=O)Oc1cc2c(=O)oc3c(OC(C)=O)c(OC(C)=O)c(OC(C)=O)c4c(=O)oc(c1OC(C)=O)c2c34	63.3	58	> 100	> 100 µM	> 100	–	> 100	> 100 µM	> 100	> 100	–	–	–	–	–	–	–	–	–	–
N#Cc1c(C(N)=O)ncn1Cc1ccccc1	> 100	> 100	> 100	> 100 µM	> 100	–	> 100	> 100 µM	–	> 100	–	–	–	–	–	–	–	–	–	–
Cc1ccc(NC(=O)/C(=N/NC(=O)CC#N)C2C(=O)N(c3ccccc3)N=C2N)cc1C (stereo unspecified)	> 100	> 100	> 100	> 100 µM	> 100	–	> 100	> 100 µM	> 100	> 100	–	–	–	–	–	–	–	–	–	–
Cc1ccc(C2=NN(C)COC2C(F)(F)F)cc1 (stereo unspecified)	> 100	> 100	> 100	> 100 µM	> 100	–	> 100	> 100 µM	> 100	> 100	–	–	–	–	–	–	–	–	–	–
CO/C=C/c1cc2c(cc1C(OC)OC)OCO2	> 100	> 100	> 100	18.9 µM	> 100	–	–	42.8 µM	> 100	> 100	–	–	–	–	–	–	–	–	–	–
O=C(O/N=C1/CCC/C1=C\c1ccccc1)c1ccccc1	> 100	> 100	> 100	> 100 µM	> 100	–	> 100	> 100 µM	> 100	> 100	–	–	–	–	–	–	–	–	–	–
